Experimental data: patent US20210238225A1, “PEPTIDOMIMETIC INHIBITORS OF THE PEPTIDYL-PROLYL CIS/TRANS ISOMERASE (PIN1)” (DANA-FARBER CANCER INSTITUTE, INC., priority 2018, published 2021)
“Also recorded” adds a separate entry of the source. Like-named read-outs stand apart in the source and are kept apart here. Non-standard residues stand in square brackets, D forms with d. Residues, ends and D or L forms follow the SMILES beside them. *: point of attachment. NMeF = CN[C@@H](Cc1ccccc1)C(=O)O; Cit = NC(=O)NCCC[C@H](N)C(=O)O; Pip = O=C(O)[C@@H]1CCCCN1; ClAc = O=C(CCl)*

Tests used:
[1] = biological target: T1, Pin1 (Homo sapiens, UniProt Q13526); assay: Lysate target engagement (pull down with biotinylated probes; competition assay); type: binding; set-up: endogenous in cells; host or cells: MDA-MB-231
Outline: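 MDA-MB-231 (TNBC) lysates, 500 μg protein, incubated 1 h at 4 °C with compound, then streptavidin pull-down 2 h at 4 °C; western blot read-out. Competition format: lysate pre-incubated overnight at 4 °C with competitor, then 1 μM desthiobiotin probe for 1 h before pull-down.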

[2] = tested on: PATU-8988T cells; assay: Time-dependent antiproliferative activity (CellTiter-Glo); type: cell-based; conditions: Day 0, 2, 4, 6 and 8
Experimental: PATU-8988T cells were plated at a density of 100 cells per well in 100 μL media in a 96-well white clear bottom plate (Corning cat #3903), with at least one plate per time point (Day 0, 2, 4, 6 and 8). Cells were treated the day after plating with 1 μL of DMSO or Compound 18 to give the indicated concentrations, and were then incubated at 37° C. 5% CO2. Every 48 hours, the media was aspirated and replaced with fresh media containing fresh compound or DMSO. When the indicated time points had been reached, cell viability was evaluated using the CellTiter-Glo Luminescent Cell Viability Assay (Promega cat #G7570) according to the manufacturer's standards, measuring luminescence using an Envision plate-reader. The Day 0 time point plates were read the day after plating, prior to compound treatment. N=3 biological replicates were used for each treatment condition.

[3] = biological target: Pin1 (GST-Pin1) (Homo sapiens, UniProt Q13526); assay: Fluorescence polarization (FP) assay, binding to Pin1
[4] = tested on: phosphoRb (S780), phosphoRb (S801/811), β-Catenin, cJun, cMyc and phosphoH3 (S10); assay: Downstream signaling, western blot in TNBC MDA-MB-231 cells; type: cell-based; conditions: 10 μM, 1, 2, 4, 6 and 8 hours
Experimental: TNBC MDA-MB-231 cells were plated in 6-well plates at a density of 100,000 cells per well in 2 mL media. The day after plating, cells were treated with the indicated concentration of compound 18, and harvested at 1, 2, 4, 6, and 8 hours. To harvest, the cells were washed with PBS, and then lysed in RIPA Lysis Buffer (Thermo Scientific™, cat. #89900, with protease inhibitors (Roche). Lysates were clarified by centrifugation (14,000 rpm for 15 min at 4° C.), and protein concentrations were determined by BCA. The samples were normalized and prepared in 4× LDS+10% β-mercaptoethanol, and were then boiled at 95° C. for 5 minutes. Lysates were probed for specified proteins by western blotting using the Bolt system (Life Technologies™).

[5] = biological target: Pin1 Cys 113 (Homo sapiens, UniProt Q13526); assay: Covalent labeling (intact MS); type: binding
Experimental: 5 μg of purified Pin1 protein in 50 μL of 20 mM HEPES pH 7.5 and 75 mM NaCl was incubated with 5 μM of respective Pin1 inhibitors for 0-3 hr. A Shimadzu XR HPLC was used to inject the entire sample onto a self-packed reverse-phase column (1/32 in outer diameter×500 μm inner diameter, 5 cm of POROS 50R2 resin). After desalting, protein was eluted with an HPLC gradient (0%-100% B in 4 min, A=0.2 M acetic acid in water, B=0.2 M acetic acid in acetonitrile, flow rate=10 μl/min) into a LTQ XL mass spectrometer (Thermo Fisher Scientific, San Jose, Calif., USA). LTQ XL MS spectra were acquired in centroid mode using the electron multipliers for ion detection. Mass spectra were deconvoluted using MagTran1.03b2 software (Zhang and Marshall, J. Am. Soc. Mass Spectrom. 9:225-233 (1998)).

[6] = biological target: T1, Pin1; assay: Cellular target engagement, live cell biotin competition assay in TNBC MDA-MB-231 cells; type: cell-based; set-up: endogenous in cells; host or cells: MDA-MB-231
Experimental: TNBC MDA-MB-231 cells were plated in 10 cm plates with 2.5 million cells per plate in 6 mL of media. The day after plating, cells were treated with the indicated concentrations of compound 18 for 5 hours. The cells were washed 2× with 0.9% NaCl (1 mL per 10 cm plate), and collected by scraping with a cell scraper. Cells were lysed in lysis buffer (50 mM Hepes pH 7.5, 150 mM NaCl, 1 mM EDTA, 10% v/v glycerol, 0.5% v/v […], protease inhibitors (Roche)) using 210 μL of cell lysis buffer per 10 cm plate of cells. After clarifying by centrifugation (14,000 rpm for 15 min at 4° C.), 5 μL of each lysate sample was combined with 5 μL of 2× LDS+10% β-mercaptoethanol, boiled for 5 minutes, and set aside for the input loading control (later to be loaded directly in the gel). Then, 200 μL of each lysate was then incubated with 1 μM of compound 2-32 (biotin probe compound) for 1 hour at 4° C. Lysates were then incubated with streptavidin agarose resin (30 μL of 1:1 beads: lysis buffer slurry) (Thermo Scientific™, cat. #20349) for 2 hours at 4° C. Beads were washed 4 times with 500 μL of washing buffer (50 mM Hepes, pH7.5, 10 mM NaCl, 1 mM EDTA, 10% glycerol), then pelleted by centrifugation and dried. The beads were then boiled at 95° C. for 5 minutes in 30 μL of 2× LDS+10% β-mercaptoethanol. Lysates were probed for specified proteins by western blotting using the Bolt system (Life Technologies™).

T1 sequence (Q13526 whole entry): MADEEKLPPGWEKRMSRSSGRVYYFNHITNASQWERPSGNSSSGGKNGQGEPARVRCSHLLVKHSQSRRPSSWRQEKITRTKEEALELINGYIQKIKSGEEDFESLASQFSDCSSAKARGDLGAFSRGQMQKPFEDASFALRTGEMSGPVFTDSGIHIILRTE
Sequence of Pin1 (GST-Pin1) (Q13526 whole entry): as above
Sequence of Pin1 Cys 113 (Q13526 whole entry): as above

CCOC(=O)[C@H](CCCNC(N)=O)NC(=O)[C@H](Cc1c[nH]c2ccccc12)NC(=O)[C@@H]1CCCCN1C(=O)[C@H](Cc1ccccc1)N(C)C(=O)CCl [Compound 18, Ethyl (S)-2-((S)-2-((S)-1-(N-(2-chloroacetyl)-N-methyl-L-phenylalanyl)piperidine-2-carboxamido)-3-(1H-indol-3-yl)propanamido)-5-ureidopentanoate] (ClAc-[NMeF][Pip]W[Cit]-OEt)
competition with compound 2c for Pin1 (FIG. 6B legend) ([1]; HEK 293 cell lysate as printed in legend): competes with compound 2c for binding of Pin1
lysate target engagement by competition with 1 μM compound 2c (FIG. 6B) ([1]; TNBC-MDA-MB-231 cell lysate, pre-incubation overnight at 4° C.): potently engaged Pin1
Lysate Target Engagement? ([1]; TNBC-MDA-MB-231 lysate, biotin/dtb probes: pull down, others: competition, concentration under E5): Yes-
Lysate Target Engagement? concentration stated for the engagement or pull down ([1]; read with the E4 line of the same compound (complete, partial, probe pull down)): 500 µM
cell viability (FIG. 10) [2]: dose-dependent and time-dependent defects in cell viability
Ki ([3]; read-out: Ki quoted in figure legend, assay not named): 20 nM
Ki ([3]; text and figure legend, read-out: Ki (fluorescence polarization, FIG. 1B)): 20 nM
downstream signaling changes (FIG. 9) [4]: a decrease in phosphoRb, β-Catenin, cJun, phosphoH3 (S10), and a temporary increase in c-Myc; also recorded: induced changes in downstream signaling
covalent labeling of Pin1 ([5]; 30-minute room temperature incubation at 1:1 Pin1:compound): 100%
Covalent? (In tact MS), % labeling ([5]; purified Pin1 with 5 μM inhibitor, 0-3 hr): Yes (100%
concentration at which cellular Pin1 is fully engaged (FIG. 7B) ([6]; TNBC MDA-MB-231 cells, 5 hours): ≤ 5 µM
Cellular Target Engagement? ([6]; TNBC MDA-MB-231 cells, 5 hours treatment, concentration under E7): Yes-Complete
Cellular Target Engagement? concentration stated for complete engagement ([6]; TNBC MDA-MB-231 cells, read with the E6 line): at 5 μM
live cell competition with compound 2-32 (FIG. 7B legend) ([6]; preincubation of live TNBC-MDA-MB-231 cells with increasing concentrations): outcompetes compound 2-32 for Pin1 binding
